The target of series [1] is T1, chanoclavine synthase (EasC) from Claviceps fusiformis (EasCCf) (Claviceps fusiformis, UniProt A8C7R6).
T1 sequence (A8C7R6 1-479): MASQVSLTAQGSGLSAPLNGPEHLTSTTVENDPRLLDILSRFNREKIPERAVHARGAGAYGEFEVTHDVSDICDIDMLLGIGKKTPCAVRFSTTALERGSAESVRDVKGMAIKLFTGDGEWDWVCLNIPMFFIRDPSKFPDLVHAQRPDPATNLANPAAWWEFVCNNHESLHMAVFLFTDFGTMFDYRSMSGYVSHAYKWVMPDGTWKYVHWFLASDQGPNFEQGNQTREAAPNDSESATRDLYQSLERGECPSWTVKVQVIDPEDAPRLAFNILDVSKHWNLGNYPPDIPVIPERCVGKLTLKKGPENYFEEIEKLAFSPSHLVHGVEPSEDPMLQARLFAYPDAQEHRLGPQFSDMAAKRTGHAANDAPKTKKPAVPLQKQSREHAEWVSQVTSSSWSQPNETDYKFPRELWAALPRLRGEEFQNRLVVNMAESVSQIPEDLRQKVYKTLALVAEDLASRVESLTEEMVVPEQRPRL
The series is described as follows: PCC conversion assay by LC–MS. Format: biochemical.

Series [2] deals with the molecule itself. The series is described as follows: cryo-EM structure.

Molecule `NO` [NH2OH, hydroxylamine] gave a 50% inhibitory concentration (IC50) in series [1] of 720 µM.

B1: chanoclavine synthase (EasC) from Claviceps fusiformis (enzyme)
chain: T1 sequence (A8C7R6 1-479)
In the case of B1, in series [2], the “stoichiometry N” value was determined as 2.

These data come from publication PMC12003167 (Nature, 2025).
